The text below walks through data of PMC10976043, “Function and Mechanism of Antiviral Wasp Venom Peptide Protopolybia-MP III and Its Derivatives against HSV-1” (Toxins, 2024).

The subject of test [1] is HSV-1. Briefly: HSV-1 life cycle stage assay (different modes of peptide treatment), qPCR. The class given is cell-based, herpes simplex virus type 1. On the procedure:
To determine the exact step at which Protopolybia-MP III blocks HSV-1 infection, we conducted an experiment with different modes of peptide treatment in Vero cells (Figure 3A). […] Then, we detected the protective effect of Protopolybia-MP III by pretreating Vero cells with 20 μg/mL Protopolybia-MP III before HSV-1 infection.
Figure 3 Protopolybia-MP III inhibits multiple phases of the HSV-1 life cycle. (A) Schematic diagram for studying stage at which Protopolybia-MP III acts on the HSV-1 life cycle. (B) Effects of Protopolybia-MP III on the attachment, entry/fusion, and post-entry stages of the HSV-1 life cycle. Vero cells were infected with HSV-1 at an MOI of 1 and treated with 20 μg/mL Protopolybia-MP III as described in (A). After 24 h, cells were collected, and intracellular HSV-1 RNA was analyzed by qPCR. (C) The effect of Protopolybia-MP III on cell protection against HSV-1 infection. Vero cells were treated with 20 μg/mL Protopolybia-MP III or PBS and infected with HSV-1 at an MOI of 1 as described in (A). After 24 h, the cells were collected, and intracellular HSV-1 RNA was analyzed by qPCR. ns, no significance. ** p < 0.01. *** p < 0.001.
Cells were collected and lysed using TRIzol reagent (Beyotime Biotechnology, Shanghai, China) to release the intracellular total RNA, followed by precipitation with isopropanol. The first-strand cDNA was reverse-transcribed by the HiScript III 1st Strand cDNA Synthesis Kit (+gDNA wiper) (Vazyme, Nanjing, China). The cDNA was quantitated by qPCR with primers using Taq Pro Universal SYBR qPCR Master Mix (Vazyme). The HSV-1 primers were 5′-[…]-3′ (sense) and 5′-[…]-3′ (antisense). The monkey GAPDH primers were 5′-[…]-3′ (sense) and 5′-[…]-3′ (antisense). The human GAPDH primers were 5′-[…]-3′ (sense) and 5′-[…]-3′ (antisense). qPCR experiments were performed on a Bio-Rad CFX96 Touch (Pleasanton, CA, USA) according to the manufacturer’s instructions.

The test system of test [2] is HSV-1 virion. Put plainly: Virion integrity assay (ultracentrifugation/gB Western blotting, electron microscopy). Also on record: species or system herpes simplex virus type 1. The note with it: 20 μg/mL with HSV-1 at 37 °C 1 h. The protocol:
Figure 5 Protopolybia-MP III destroys the integrity of HSV-1 free virions. (A) Schematic diagram for studying the effect of Protopolybia-MP III on HSV-1 free virion infectivity. (B) Effects of Protopolybia-MP III on HSV-1 free virion infectivity at different temperatures. HSV-1 (MOI = 1) and 20 μg/mL Protopolybia-MP III or PBS were coincubated at 4 °C, 22 °C, and 37 °C for 1 h, and then Vero cells were infected as described in (A). After 24 h, cells were collected, and intracellular HSV-1 RNA was analyzed by qPCR. (C) Effects of different concentrations of Protopolybia-MP III on HSV-1 free virion infectivity. HSV-1 (MOI = 1) and 1 or 10 μg/mL Protopolybia-MP III or PBS were coincubated at 37 °C for 1 h, and then Vero cells were infected as described in (A). After 24 h, cells were collected, and intracellular HSV-1 RNA was analyzed by qPCR. (D,E) The effect of Protopolybia-MP III on HSV-1 free virion integrity. HSV-1 and 20 μg/mL Protopolybia-MP III or PBS were coincubated at 37 °C for 1 h. Then, after centrifuging for 2 h at 40,000 rpm at 4 °C, the contents of HSV-1 gB in the supernatant and precipitate were detected by Western blotting (D). In addition, the structure of HSV-1 virions after incubation with Protopolybia-MP III was observed by electron microscopy. The red arrow points to a destroyed HSV-1 virion. *** p < 0.001.
HSV-1 virions were coincubated with PBS or 20 μg/mL Protopolybia-MP III at 37 °C for 1 h. Then, the virions were separated by ultracentrifugation at 40,000 rpm at 4 °C for 2 h in a Beckman SW41 rotor (Beckman Coulter, Brea, CA, USA). The supernatant was collected and lyophilized using a vacuum freeze dryer (Labconco FreeZone6L, Kansas City, MO, USA). HSV-1 glycoprotein gB from both the precipitate and supernatant components were measured by Western blotting. In addition, after HSV-1 was coincubated with PBS or 20 μg/mL Protopolybia-MP III at 37 °C for 1 h, samples were placed on 200-mesh var/carbon-coated copper grids by dipping the grids into the virion sample solutions. […]

[3] abbreviates: Vero cells, 20 μg/mL, HSV-1 MOI 1, 24 h, qPCR of HSV-1 RNA.
The mark [4] stands for this setting: ultracentrifugation 40,000 rpm 2 h 4 °C, Western blotting.

Ends that are not written are not given here.

Take “INWLKLGKAVIDAL-NH2 [Protopolybia-MP III]”: the “protection of cells from HSV-1 infection (pretreatment)” value in test [1] (Vero cells pretreated with 20 μg/mL before HSV-1 infection, MOI 1, 24 h, qPCR) was “almost no effect”. For the same substance, in test [1] (setting [3]), the “inhibitory rate, attachment stage of the HSV-1 life cycle” value is 57%; the “inhibitory rate, entry/fusion stage of the HSV-1 life cycle” value stood at 84%; the “inhibitory rate, post-entry stage of the HSV-1 life cycle” value is 66%. In test [2] (negative staining), the “HSV-1 virion structure by electron microscopy” value is “destroyed”. For the same substance, in test [2] (setting [4]), the “gB content in the precipitate compared with PBS treatment” value was “significantly reduced” and the “gB content in the supernatant compared with PBS treatment” value was “increased”.
